Results taken from patent EP1803452A1, “ESTER DERIVATIVE AND PHARMACEUTICAL USE THEREOF” (Japan Tobacco, Inc., priority 2004, dated 2006).
Blank lines part the entries; values can stand above or below the compound they belong to.

Key:
[1] = Metabolic stability test in plasma; format: in vitro ADME, human; conditions: LC/MS; for remaining at 10 min: unchanged form after 10 minutes at 37°C in human plasma, read-out: Remaining rate in human plasma (%/10min); for remaining at 1 h: unchanged form after 60 minutes at 37°C in human plasma, read-out: Remaining rate in human plasma (%/60min)
How it was run: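 Remaining rate (%) versus zero time was derived from LC/MS measurement of parent compound after centrifugation. Plasma from human, mouse and hamster received DMSO-dissolved compound and was held at 37°C for 0, 10 or 60 minutes before acetonitrile containing formic acid (final 0.1%) stopped the reaction.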

[2] = Metabolic stability test in liver S9; format: in vitro ADME; conditions: pH 7.4, human liver S9 2 mg protein/mL, LC/MS; for remaining at 10 min: unchanged form after 10 minutes at 37°C, read-out: Remaining rate in human liver S9 (%/10min); for remaining at 1 h: unchanged form after 60 minutes at 37°C, read-out: Remaining rate in human liver S9 (%/60min)
How it was run: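 Compound from DMSO solution was incubated at 37°C with human liver S9 (final 2 mg protein/mL) in 100 mM potassium phosphate pH 7.4 with an NADPH-regenerating system for 0, 10 and 60 minutes. Reactions were stopped with acetonitrile/0.1% formic acid. Unchanged compound was measured by LC/MS as remaining rate (%) relative to zero time.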

[3] = Stability test in buffer (pH 7.4); format: physicochemical; conditions: phosphate buffer/acetonitrile 7:3, 100 mM potassium phosphate buffer (pH 7.4) and acetonitrile 7:3 (v/v), LC/MS; for remaining at 10 min: 10 minutes at 37°C, read-out: Buf. remaining rate (%/10min); for remaining at 1 h: 60 minutes at 37°C, read-out: Buf. remaining rate (%/60min)
How it was run: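 Parent compound measured by LC/MS after 0, 10 or 60 min at 37°C in a 7:3 (v/v) mix of 100 mM potassium phosphate buffer and acetonitrile, with the reaction stopped by acetonitrile plus formic acid (final 0.1%). Percentage remaining is expressed relative to the zero-time amount.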

SMILES: CN(C)C(=O)c1cc(CCCC(=O)Oc2ccc(C(=O)OCc3cccc(Cl)c3)cc2)ccc1NC(=O)c1ccccc1-c1ccc(C(F)(F)F)cc1 [Compound 1-87, 4-[4-(3-dimethylcarbamoyl-4-{(4'-trifluoromethylbiphenyl-2-carbonyl)amino}phenyl)butyryloxy]benzoic acid 3-chlorobenzyl ester]
remaining at 10 min [1]: 60%
remaining at 1 h [1]: 2%
remaining at 10 min [2]: 11%
remaining at 1 h [2]: 2%
remaining at 10 min [3]: 100%
remaining at 1 h [3]: 104%

SMILES: CCC(=O)c1ccc(OC(=O)CCCc2ccc(NC(=O)c3ccccc3-c3ccc(C(F)(F)F)cc3)c(C(=O)N(C)C)c2)cc1 [Compound 1-88, 4-(3-dimethylcarbamoyl-4-{(4'-trifluoromethylbiphenyl-2-carbonyl)amino}phenyl)butyric acid 4-propionylphenyl ester]
remaining at 10 min [1]: 39%
remaining at 1 h [1]: 0%
remaining at 10 min [2]: 0%
remaining at 1 h [2]: 0%
remaining at 10 min [3]: 102%
remaining at 1 h [3]: 101%

SMILES: CN(C)C(=O)c1cc(CCCC(=O)Oc2ccc(C(=O)OCCOCc3ccccc3)cc2)ccc1NC(=O)c1ccccc1-c1ccc(C(F)(F)F)cc1 [Compound 1-89, 4-[4-(3-dimethylcarbamoyl-4-{(4'-trifluoromethylbiphenyl-2-carbonyl)amino}phenyl)butyryloxy]benzoic acid 2-benzyloxyethyl ester]
remaining at 10 min [1]: 49%
remaining at 1 h [1]: 0%
remaining at 10 min [2]: 6%
remaining at 1 h [2]: 3%
remaining at 10 min [3]: 102%
remaining at 1 h [3]: 104%

SMILES: CN(C)C(=O)c1cc(CCCC(=O)Oc2ccc(C(=O)OCCCOCc3ccccc3)cc2)ccc1NC(=O)c1ccccc1-c1ccc(C(F)(F)F)cc1 [Compound 1-90, 4-[4-(3-dimethylcarbamoyl-4-{(4'-trifluoromethylbiphenyl-2-carbonyl)amino}phenyl)butyryloxy]benzoic acid 3-benzyloxypropyl ester]
remaining at 10 min [1]: 50%
remaining at 1 h [1]: 0%
remaining at 10 min [2]: 7%
remaining at 1 h [2]: 0%
remaining at 10 min [3]: 102%
remaining at 1 h [3]: 103%

SMILES: CN(C)C(=O)c1cc(CCCC(=O)Oc2ccc(C(=O)OCCN3CCCC3=O)cc2)ccc1NC(=O)c1ccccc1-c1ccc(C(F)(F)F)cc1 [Compound 1-91, 4-[4-(3-dimethylcarbamoyl-4-{(4'-trifluoromethylbiphenyl-2-carbonyl)amino}phenyl)butyryloxy]benzoic acid 2-(2-oxopyrrolidin-1-yl)ethyl ester]
remaining at 10 min [1]: 31%
remaining at 1 h [1]: 0%
remaining at 10 min [2]: 0%
remaining at 1 h [2]: 0%
remaining at 10 min [3]: 100%
remaining at 1 h [3]: 105%

SMILES: CN(C)C(=O)c1cc(CCCC(=O)Oc2ccc(C(=O)OCCCO)cc2)ccc1NC(=O)c1ccccc1-c1ccc(C(F)(F)F)cc1 [Compound 1-92, 4-[4-(3-dimethylcarbamoyl-4-{(4'-trifluoromethylbiphenyl-2-carbonyl)amino}phenyl)butyryloxy]benzoic acid 3-hydroxypropyl ester]
remaining at 10 min [1]: 71%
remaining at 1 h [1]: 6%
remaining at 10 min [2]: 0%
remaining at 1 h [2]: 0%
remaining at 10 min [3]: 102%
remaining at 1 h [3]: 107%

SMILES: CCCC(=O)c1ccc(OC(=O)CCCc2ccc(NC(=O)c3ccccc3-c3ccc(C(F)(F)F)cc3)c(C(=O)N(C)C)c2)cc1 [Compound 1-93, 4-(3-dimethylcarbamoyl-4-{(4'-trifluoromethylbiphenyl-2-carbonyl)amino}phenyl)butyric acid 4-butyrylphenyl ester]
remaining at 10 min [1]: 52%
remaining at 1 h [1]: 0%
remaining at 10 min [2]: 4%
remaining at 1 h [2]: 0%
remaining at 10 min [3]: 107%
remaining at 1 h [3]: 109%

SMILES: Cc1ccc(C(=O)Nc2ccc(CCCC(=O)Oc3ccc(C(=O)OCc4cccnc4)cc3)cc2C(=O)N(C)C)c(-c2ccc(C(F)(F)F)cc2)n1 [Compound 1-94, 4-[4-(3-dimethylcarbamoyl-4-{[6-methyl-2-(4-trifluoromethylphenyl)pyridine-3-carbonyl]amino}phenyl)butyryloxy]benzoic acid pyridin-3-ylmethyl ester]
remaining at 10 min [1]: 41%
remaining at 1 h [1]: 9%
remaining at 10 min [2]: 0%
remaining at 1 h [2]: 0%
remaining at 10 min [3]: 99%
remaining at 1 h [3]: 102%

SMILES: CN(C)C(=O)c1cc(CCCC(=O)Oc2ccc(-c3nnn(C)n3)cc2)ccc1NC(=O)c1ccccc1-c1ccc(C(F)(F)F)cc1 [Compound 1-95, 4-(3-dimethylcarbamoyl-4-{(4'-trifluoromethylbiphenyl-2-carbonyl)amino}phenyl)butyric acid 4-(2-methyl-2H-tetrazol-5-yl)phenyl ester]
remaining at 10 min [1]: 82%
remaining at 1 h [1]: 29%
remaining at 10 min [2]: 0%
remaining at 1 h [2]: 0%
remaining at 10 min [3]: 103%
remaining at 1 h [3]: 102%

SMILES: COc1ccc(COC(=O)c2ccc(OC(=O)CCCc3ccc(NC(=O)c4ccccc4-c4ccc(C(F)(F)F)cc4)c(C(=O)N(C)C)c3)cc2)cc1 [Compound 1-96, 4-[4-(3-dimethylcarbamoyl-4-{(4'-trifluoromethylbiphenyl-2-carbonyl)amino}phenyl)butyryloxy]benzoic acid 4-methoxybenzyl ester]
remaining at 10 min [1]: 0%
remaining at 1 h [1]: 0%
remaining at 10 min [2]: 15%
remaining at 1 h [2]: 7%
remaining at 10 min [3]: 100%
remaining at 1 h [3]: 109%

Results, then the compound that gave them:

remaining at 10 min [1]: 49%
remaining at 1 h [1]: 0%
remaining at 10 min [2]: 13%
remaining at 1 h [2]: 7%
remaining at 10 min [3]: 100%
remaining at 1 h [3]: 104%
SMILES: COc1cccc(COC(=O)c2ccc(OC(=O)CCCc3ccc(NC(=O)c4ccccc4-c4ccc(C(F)(F)F)cc4)c(C(=O)N(C)C)c3)cc2)c1 [Compound 1-97, 4-[4-(3-dimethylcarbamoyl-4-{(4'-trifluoromethylbiphenyl-2-carbonyl)amino}phenyl)butyryloxy]benzoic acid 3-methoxybenzyl ester]

remaining at 10 min [1]: 5%
remaining at 1 h [1]: 0%
remaining at 10 min [2]: 6%
remaining at 1 h [2]: 0%
remaining at 10 min [3]: 101%
remaining at 1 h [3]: 99%
SMILES: CN(C)C(=O)c1cc(CCCC(=O)Oc2ccc(C(=O)OCc3cccs3)cc2)ccc1NC(=O)c1ccccc1-c1ccc(C(F)(F)F)cc1 [Compound 1-98, 4-[4-(3-dimethylcarbamoyl-4-{(4'-trifluoromethylbiphenyl-2-carbonyl)amino}phenyl)butyryloxy]benzoic acid thiophen-2-ylmethyl ester]

remaining at 10 min [1]: 5%
remaining at 1 h [1]: 0%
remaining at 10 min [2]: 6%
remaining at 1 h [2]: 0%
remaining at 10 min [3]: 98%
remaining at 1 h [3]: 99%
SMILES: CN(C)C(=O)c1cc(CCCC(=O)Oc2ccc(C(=O)OCc3ccsc3)cc2)ccc1NC(=O)c1ccccc1-c1ccc(C(F)(F)F)cc1 [Compound 1-99, 4-[4-(3-dimethylcarbamoyl-4-{(4'-trifluoromethylbiphenyl-2-carbonyl)amino}phenyl)butyryloxy]benzoic acid thiophen-3-ylmethyl ester]

remaining at 10 min [1]: 12%
remaining at 1 h [1]: 0%
remaining at 10 min [2]: 0%
remaining at 1 h [2]: 0%
remaining at 10 min [3]: 102%
remaining at 1 h [3]: 102%
SMILES: Cc1cccc(COC(=O)c2ccc(OC(=O)CCCc3ccc(NC(=O)c4ccc(C)nc4-c4ccc(C(F)(F)F)cc4)c(C(=O)N(C)C)c3)cc2)n1 [Compound 1-100, 4-[4-(3-dimethylcarbamoyl-4-([6-methyl-2-(4-trifluoromethylphenyl)pyridine-3-carbonyl]amino}phenyl)butyryloxy]benzoic acid 6-methylpyridin-2-ylmethyl ester]

remaining at 10 min [1]: 42%
remaining at 1 h [1]: 0%
remaining at 10 min [2]: 3%
remaining at 1 h [2]: 0%
remaining at 10 min [3]: 100%
remaining at 1 h [3]: 103%
SMILES: Cc1cccc(COC(=O)c2ccc(OC(=O)CCCc3ccc(NC(=O)c4ccccc4-c4ccc(C(F)(F)F)cc4)c(C(=O)N(C)C)c3)cc2)n1 [Compound 1-101, 4-[4-(3-dimethylcarbamoyl-4-{(4'-trifluoromethylbiphenyl-2-carbonyl)amino}phenyl)butyryloxy]benzoic acid 6-methylpyridin-2-ylmethyl ester]

remaining at 10 min [1]: 46%
remaining at 1 h [1]: 0%
remaining at 10 min [2]: 0%
remaining at 1 h [2]: 0%
remaining at 10 min [3]: 98%
remaining at 1 h [3]: 101%
SMILES: CC(C)OC(=O)COC(=O)c1ccc(OC(=O)CCCc2ccc(NC(=O)c3ccccc3-c3ccc(C(F)(F)F)cc3)c(C(=O)N(C)C)c2)cc1 [Compound 1-102, 4-[4-(3-dimethylcarbamoyl-4-{(4'-trifluoromethylbiphenyl-2-carbonyl)amino}phenyl)butyryloxy]benzoic acid isopropoxycarbonylmethyl ester]
